Measured values reported in patent US20020042079A1, “METHODS AND AGENTS FOR MEASURING AND CONTROLLING MULTIDRUG RESISTANCE” (priority 1994, published 2002).
Entries after “also recorded” stand apart in the source; their conditions may differ.

Key:
MCF-7/ADR cells [1] = experiment: Cell viability assay of Adriamycin sensitivity (Hoechst 33258 DNA content); conditions: for effect on sensitivity of drug-resistant cells to Adriamycin: MCF-7/ADR (MCF-7adr) cells, agent co-incubated with adriamycin for 6 hours
Protocol: After 6 hours, the media was removed, the cells rinsed, and then fed with fresh media not containing drugs. […] Media was aspirated and the wells rinsed with Hanks Balanced Salt Solution (HBSS, phenol red free). The cells were sonicated in hypotonic media (0.1×HBSS) for 30 seconds. […] Calf thymus DNA was used for calibration.
Cell viability assays: The media was removed 60 hr. after plating the cells and replaced with fresh media supplemented with various concentrations of adriamycin (Calbiochem, CA) and monensin (solubilized in DMF 0.1%) (Sigma, St. Louis). After 6 hr the media was removed, the cells rinsed, and then fed with fresh media not containing drugs. […] Media was aspirated and the wells rinsed with Hanks Balanced Salt Solution (HBSS, phenol red free). The cells were sonicated in hypotonic media (0.1×HBSS) for 30 seconds. […] Calf thymus DNA was used for calibration.
Cell Viability Assays: Cell viability was assayed by plating cells at ˜1000 cells/well in 24 well plates (Falcon) in DME. […] The cells were fed daily for three days and then cell viability was quantified with two independent techniques: an assay of total DNA and an assay of volume of viable cells. […] Calf thymus DNA was used for calibration.
After three days cell viability was assayed.

MCF-7/ADR cells [2] = experiment: Acridine orange labeling of acidic compartments (confocal microscopy); type: cell-based, human; conditions: for red-orange acridine orange fluorescence of cytoplasmic organelles after addition of agent: MCF-7/ADR, 30 minutes, Monensin 5 μM, Bafilomycin A1 500 nM, concanomycin 100 nM, Tamoxifen 5 or 10 μM, verapamil 10 μM, cyclosporin A 10 μM
Protocol: Confocal fluorescence imaging of intracellular pH and acidic compartments: Acridine orange (2 μg/ml media; 4 mg/ml stock in water) was added directly to the chambers and the cells were incubated with the dye at 37° C. for 30 minutes. Cells in the presence of acridine orange were then examined at room temperature with an Insight Bilateral Laser Scanning Confocal Microscope (Meridian Instruments, Okemos, Mich.). […] Optical sections of the fluorescent sample were recorded at 0.5 micron intervals. […] The acetoxymethylester derivative of SNAFL-calcein (15 μg/ml) (Molecular Probes, Eugene, Oreg.) (a radiometric fluorescent probe for pH) was added to both MCF-7 and MCF-7adr cells. The ester linked fluorescent probe enters the cell passively where the esters are hydrolyzed by esterases located in the cytoplasm and intracellular vesicles. The SNAFL-calcein is then ionically trapped within the cytoplasm and vesicular compartments. […] These images were then compared to standard curves that were obtained in the following manner. […] Cells treated with monensin were exposed to the drug (10 μg/ml of media) for 30 minutes at 37° C. prior to labeling with SNAFL-calcein as described above. All cells were examined at room temperature.
The green and red emissions were collected using two photomultiplier tubes. […] Green emission was next passed through a 530 nm/30 nm bandpass filter and collected by the on-axis photomultiplier tube. Red emission was passed through a 610 nm longpass filter and collected by the 90° side photomultiplier tube.
Optical sections of the fluorescent samples were recorded at 0.5 micron intervals with a 60×oil immersion objective.

MCF-7/ADR cells [3] = experiment: Organelle-specific pH measurements with targeted SNARF and FITC probes in living cells; type: cell-based, human; conditions: MCF-7/ADR cells; SNARF 70 kD dextran; Tamoxifen at 10 μM
Protocol: Organelle-specific pH measurements: The pH was measured in selective cellular compartments by targeting ratiometric pH probes to specific organelles. […] Using a Nikon epifluorescence microscope with a intensified CCD camera, the pH probe FITC was excited alternately at 450 nm and 490 nm and emission recorded with a 520/10 bandpass filter. […] In short, to calibrate the pH for the endosomal system, the chamber was perfused with 150 mM sodium buffers at pH of 5, 6 or 7 containing of monensin (20 μM) and nigericin (10 μM) for 5 minutes before recording the fluorescence. For the pH calibrations of cytosol and nucleoplasm, the cells were incubated in 140 mM potassium buffers at pH 6.0, 6.5, 7.0 and 7.5 containing nigericin (20 μM).
After endocytosis, the transferrin is transported through the endosomes and then recycled back to the surface without passage through the lysosomes.
pH in the lysosomes: The pH in the lysosomes was assayed both with light and electron microscopy. […] The pH was calibrated as described above. […] The cells were incubated one hour at room temperature, washed with several changes of PBS pH 7.4 containing 50 mM NH4Cl. […] The cells were embedded in LR White in gelatin capsules and baked at 60° C. for 24 hours in a vacuum oven, sectioned and incubated overnight at 4° C. with anti-DNP antibodies in 4% FBS, washed and incubated in gold (10 nm) labeled secondary antibodies for 2 hours. They were then stained and visualized under the electron microscope.
Cells were plated on polystyrene plates at 50% confluency. Twenty-four to thirty-six hours later, the medium was aspirated and the cells were covered with 50 μl of DME with SNARF-dextran (10 mg/ml). The cells were quickly scraped off the polystyrene and placed in pre-chilled tubes containing 1 ml DME without serum. The cells were harvested (100 g for 5 minutes), washed twice with pre-chilled DME, and plated on Lab-Tek chambers in DME with serum. The cells were allowed to recover for 24 hours prior to examination on a confocal microscope. The pH was calibrated from SNARF fluorescence as described above.
pH in the nucleus: The nucleoplasmic pH was probed by loading the cytosol with SNARF conjugated to a 10 kD dextran. This dextran is too large to cross cellular membranes, but can enter the nucleoplasm by diffusion across the nuclear pores. Confocal fluorescence microscopy was used to prepare optical sections through the cell allowing the fluorescence intensity of the nucleoplasm and cytoplasm to be quantified. The 10 kD SNARF-dextran was loaded into the cytosol and imaged using the same techniques for the 70 kD SNARF-dextrans (see above).

MCF-7/ADR cells [4] = experiment: Subcellular distribution of Adriamycin fluorescence (confocal microscopy); type: cell-based, human; conditions: for Adriamycin distribution after addition of agent: MCF-7/ADR, Monensin 5 μM, Bafilomycin A1 500 nM, concanomycin 100 nM, Tamoxifen 10 μM (50 μM in Example 3), verapamil 10 μM, cyclosporin 5 μM
Protocol: Adriamycin can be excited between 350 nm-550 nm and emits between 400 nm-700 nm.
Labeling of Cells with Adriamycin: Cells were loaded with Adriamycin (10 μM) added to the perfusion medium. […] For epi-fluorescence, the cells were excited with 450-490 nm filter and emission was monitored with a 510 nm longpass filter.

[5] = system: isolated microsomes of MCF-7/ADR cells; experiment: In vitro acidification of total microsomal preparation (acridine orange quenching); conditions: for rate of dissipation of the pre-existing pH gradient: added 10 minutes after ATP, Bafilomycin A1 100 nM, compared with tamoxifen
Protocol: Acidification of Cellular Microsomes: The acidification of cellular microsomes was assayed spectrophotometrically. Two different approaches were used for assaying acidification: Acidification of the total microsomal preparation using quenching of acridine orange and acidification of the recycling endosomes by monitoring the fluorescence from a microsomal preparation from cells that had previously endocytosed FITC-transferrin.
The homogenate was centrifuged twice for 10 minutes at 3000 g to remove unbroken cells and nuclei. The supernatant was layered over 20 ml of 0.5 M sucrose (20 mM HERES (pH 7.4), 1 mM DTT, 1 mM EDTA, 1×protease inhibitor mix) and 1 ml of 2 M sucrose and centrifuged for one hour at 100,000 g (Beckman Ti60 Rotor). Microsomes are collected at the 0.5 M and 2 M interface.
Acidic vesicles accumulate acridine orange to high concentrations resulting in the self quenching of the dye. This accumulation causes depletion of the acridine orange from the extra-vesicular space, and a decrease of the overall fluorescence of the sample. […] The sample was allowed to equilibrate by stirring for 30 minutes at 25° C. After 5 minutes of recording to establish baseline, 1 mM Tris-ATP was added to begin acidification (100 mM stock, titrated to pH 7.4 with 1 M Tris-base before use).

[6] = lumenal pH of 6 and an external pH of 8; cited from earlier work

| Structure (SMILES) | effect on sensitivity of drug-resistant cells to Adriamycin (MCF-7/ADR cells [1]) | red-orange acridine orange fluorescence of cytoplasmic organelles after addition of agent (MCF-7/ADR cells [2]) | Adriamycin distribution after addition of agent (MCF-7/ADR cells [4]) | rate of dissipation of the pre-existing pH gradient [5] | other results |
| --- | --- | --- | --- | --- | --- |
| C[C@H]1CCC/C=C/[C@@H]2C[C@H](O)C[C@H]2[C@H](O)/C=C/C(=O)O1 [Brefeldin A] | did not affect drug sensitivity |  |  |  |  |
| N=C(N)NC(=O)c1nc(Cl)c(N)nc1N [amiloride] | functioned in a similar manner |  |  |  |  |
| COc1ccc(CCN(C)CCCC(C#N)(c2ccc(OC)c(OC)c2)C(C)C)cc1OC (stereo not shown) [verapamil] |  | loss of the red-orange cytoplasmic fluorescence | shifted Adriamycin from punctate cytoplasmic organelles to a diffuse cytoplasmic and nucleoplasmic distribution |  | shift of cytosolic pH, more alkaline (MCF-7/ADR cells [3]): no measurable effect on cytosolic pH |
| CO/C1=C\C(C)=C\[C@@H](C)[C@@H](O)[C@@H](C)C/C(C)=C/C=C/[C@H](OC)[C@@H]([C@@H](C)[C@@H](O)[C@H](C)[C@@]2(O)C[C@@H](O)[C@H](C)[C@@H](C(C)C)O2)OC1=O [Bafilomycin A1] |  | the punctate red labeling of acidic organelles was lost; also recorded: disappearance of punctate red-orange cytoplasmic fluorescence | redistributed Adriamycin to the nucleoplasm; also recorded: substantially decreased in all cytoplasmic compartments and increased in the nucleoplasm | dissipated the pH gradient at a much slower rate | acidification of pre-treated microsomes ([5]; Tamoxifen 8 μM, Bafilomycin A1 10 nM, monensin concentration not given): blocked acidification; acidification blocked ([5]; at one tenth of 100 nM): 95% |
| CO[C@@H]1C[C@@H](C[C@H]2CC[C@H](C)[C@H]([C@@H](C)C(=O)O)O2)O[C@]2(O[C@](C)([C@H]3CC[C@@](C)([C@@H]4O[C@@H]([C@H]5O[C@@](O)(CO)[C@H](C)C[C@@H]5C)C[C@@H]4C)O3)C[C@H]2C)[C@@H]1C [Nigericin] | functioned in a similar manner |  |  | significantly faster than tamoxifen | acridine orange staining of acidic vesicles after treatment (MCF-7/ADR cells [2]; MCF-7adr (Examples 2, 3), nigericin 7.5 μM, tamoxifen 50 μM): eliminated fluorescent staining of both cytoplasmic vesicles and vesicles within the pericentriolar region; also recorded: immediate loss of orange/red fluorescence |
| COc1cccc2c1C(=O)c1c(O)c3c(c(O)c1C2=O)C[C@@](O)(C(=O)CO)C[C@@H]3O[C@H]1C[C@H](N)[C@H](O)[C@H](C)O1 [Adriamycin] |  |  |  |  | cell death (MCF-7/ADR cells [1]; 1 μM Adriamycin, absence of Tamoxifen, 6 hours exposure, assayed after three days): less than 20%; accumulation in a liposome [6]: approximately 100 fold; time for Adriamycin accumulation to reach a steady-state distribution (MCF-7/ADR cells [4]; MCF-7 and MCF-7/ADR cells): approximately 60 minutes |
